How the values were obtained:
[1] = biological target: T1, Gag-Pol polyprotein [484-582,I494L,I497V,V499I,D514N,E519D,R541K,D544E,Q553K,N572D,L573M] (Human immunodeficiency virus, UniProt Q9QBY3, D514N/D544E/E519D/I494L/I497V/L573M/N572D/Q553K/R541K/V499I); assay: Inhibition Assay
T1 construct: 484-582
Protocol: (§1) HIV protease inhibitor activities were determined by fluorescence resonance energy transfer (FRET) method. Protease substrate, Arg-Glu-(EDANS)-Ser-Gln-Asn-Tyr-Pro-Ile-Val-Gln-Lys(DABCYL)-Arg, was labeled with the energy transfer donor (EDANS) and acceptor (DABCYL) dyes at its two ends to perform FRET. Fluorescence measurements were carried out on an EnVision plate reader (PerkinElmer).

[2] = biological target: T2, Gag-Pol polyprotein [484-582,I494L,I497V,V499I,E519D,I534V,R541K,D544E,Q553K,A555V,L573M] (Human immunodeficiency virus, UniProt Q9QBY3, A555V/D544E/E519D/I494L/I497V/I534V/L573M/Q553K/R541K/V499I); assay: Inhibition Assay
T2 construct: 484-582
Protocol: as §1

[3] = biological target: T3, Gag-Pol polyprotein [484-582,I497V,V499I,E519D,G532V,I538V,R541K,D544E,Q553K,V566A,L573M] (Human immunodeficiency virus, UniProt Q9QBY3, D544E/E519D/G532V/I497V/I538V/L573M/Q553K/R541K/V499I/V566A); assay: Inhibition Assay
T3 construct: 484-582
Protocol: as §1

[4] = biological target: T4, Gag-Pol polyprotein [484-582,I497V,V499I,E519D,R541K,D544E,Q553K,A555V,G557S,I568V,L574M,L573M] (Human immunodeficiency virus, UniProt Q9QBY3, A555V/D544E/E519D/G557S/I497V/I568V/L573M/L574M/Q553K/R541K/V499I); assay: Inhibition Assay
T4 construct: 484-582
Protocol: as §1

HIV-1 protease = HIV-1 protease (Human immunodeficiency virus, UniProt O90785); assay: Inhibition Assay
Protocol: as §1

[5] = biological target: T5, Gag-Pol polyprotein [489-892,N526H,R530K,V566I,I582L,V648I,Q690K,I723V,C750S,T788A,Q795E,T874A,V881I,P882Q] (Human immunodeficiency virus, UniProt P12497, C750S/I582L/I723V/N526H/P882Q/Q690K/Q795E/R530K/T788A/T874A/V566I/V648I/V881I); assay: Drug Susceptibility Assay
T5 construct: 489-892
Protocol: (§2) Drug susceptibility assays were carried out by Monogram Bioscience against wild-type HIV-1 control and patient-derived strains of wild-type HIV-1 from clades A, B, and C, and two multi-drug-resistant HIV-1 variants.

[6] = biological target: T6, Gag-Pol polyprotein [489-892] (Human immunodeficiency virus, UniProt P12497); assay: Drug Susceptibility Assay
T6 construct: 489-892
Protocol: as §2

[7] = biological target: HIV WT-A pol protein (wild-type clade A) (Human immunodeficiency virus 1, UniProt P12497); assay: Drug Susceptibility Assay
Protocol: as §2

[8] = biological target: HIV WT-C pol protein (wild-type clade C) (Human immunodeficiency virus, UniProt P12497); assay: Drug Susceptibility Assay
Protocol: as §2

MDR1 = MDR1 (Human immunodeficiency virus, UniProt P12497); assay: Drug Susceptibility Assay
Protocol: as §2

MDRC4 = MDRC4 (Human immunodeficiency virus, UniProt P12497); assay: Drug Susceptibility Assay
Protocol: as §2

COc1ccc(S(=O)(=O)N(CC2CCCCC2)C[C@@H](O)[C@H](Cc2ccccc2)NC(=O)c2cccc(O)c2)cc1 [N-[(1S,2R)-3-[(Cyclohexylmethyl)[(4-methoxyphenyl)sulfonyl]amino]-2-hydroxy-1-(phenylmethyl)propyl]-3-hydroxy-benzamide (AF-77)]
Ki [1]: 0.49 nM
Ki [2]: 3.4 nM
Ki [3]: 2.04 nM
Ki [4]: 2.47 nM
Ki (HIV-1 protease): 0.546 nM
EC50 [5]: 22.4 nM
EC50 [6]: 47.3 nM
EC50 [7]: 38.4 nM
EC50 [8]: 65.7 nM
EC50 (MDR1): 86.9 nM
EC50 (MDRC4): 105 nM

O=C(N[C@@H](Cc1ccccc1)[C@H](O)CN(CC1CCCCC1)S(=O)(=O)c1ccc2ncsc2c1)c1cccc(O)c1 [N-[(1S,2R)-3-[(6-Benzothiazolylsulfonyl)(cyclohexylmethyl)amino]-2-hydroxy-1-(phenylmethyl)propyl]-3-hydroxy-benzamide (AF-72)]
Ki [1]: 0.383 nM
Ki [2]: 4.82 nM
Ki [3]: 1.33 nM
Ki [4]: 2.75 nM
Ki (HIV-1 protease): 0.129 nM
EC50 [5]: 37.9 nM
EC50 [6]: 63.7 nM
EC50 [7]: 48.6 nM
EC50 [8]: 94.6 nM
EC50 (MDR1): 99.1 nM
EC50 (MDRC4): 165 nM

O=C(N[C@@H](Cc1ccccc1)[C@H](O)CN(CCCc1ccccc1)S(=O)(=O)c1ccc2ncsc2c1)c1cccc(O)c1 [N-[(1S,2R)-3-[(6-Benzothiazolylsulfonyl)(3-phenylpropyl)amino]-2-hydroxy-1-(phenylmethyl)propyl]-3-hydroxy-benzamide (AF-69)]
Ki [1]: 2 nM
Ki [2]: 2.27 nM
Ki [3]: 19.2 nM
Ki [4]: 9.96 nM
Ki (HIV-1 protease): 0.07 nM

CC[C@H](C)CN(C[C@@H](O)[C@H](Cc1ccccc1)NC(=O)c1cccc(O)c1)S(=O)(=O)c1ccc(-c2ccno2)s1 [3-Hydroxy-N-[(1S,2R)-2-hydroxy-3-[[[5-(5-isoxazolyl)-2-thienyl]sulfonyl][(2S)-2-methylbutyl]amino]-1-(phenylmethyl)propyl]-benzamide (AF-71)]
Ki [1]: 2.95 nM
Ki [2]: 30 nM
Ki [3]: 18.2 nM
Ki [4]: 44.8 nM
Ki (HIV-1 protease): 3.33 nM

CC[C@H](C)[C@H](NC(C)=O)C(=O)N[C@@H](Cc1ccccc1)[C@H](O)CN(CC(C)C)S(=O)(=O)c1ccc(OC)cc1 [(2S,3S)-2-(Acetylamino)-N-[(1S,2R)-2-hydroxy-3-[[(4-methoxyphenyl)sulfonyl](2-methylpropyl)amino]-1-(phenylmethyl)propyl]-3-methyl-pentanamide (AF-68)]
Ki [1]: 0.049 nM
Ki [2]: 0.144 nM
Ki [3]: 0.819 nM
Ki [4]: 1.03 nM
Ki (HIV-1 protease): 0.146 nM
EC50 [5]: 1.6 nM
EC50 [6]: 3.5 nM
EC50 [7]: 2.4 nM
EC50 [8]: 3 nM
EC50 (MDR1): 15.1 nM
EC50 (MDRC4): 15.4 nM

CC(C)CN(C[C@@H](O)[C@H](Cc1ccccc1)NC(=O)O[C@H]1CCOC1)S(=O)(=O)c1ccc(N)cc1 [VX-478]
EC50 [5]: 1.8 nM
EC50 [6]: 3 nM
EC50 [7]: 2.6 nM
EC50 [8]: 3.7 nM
EC50 (MDR1): 15.6 nM
EC50 (MDRC4): 17.5 nM

CC[C@H](C)CN(C[C@@H](O)[C@H](Cc1ccccc1)NC(=O)C(NC(C)=O)[C@@H](C)CC)S(=O)(=O)c1ccc2ncsc2c1 (stereo partly drawn) [(2S,3S)-2-(Acetylamino)-N-[(1S,2R)-3-[(6-benzothiazolylsulfonyl)[(2S)-2-methylbutyl]amino]-2-hydroxy-1-(phenylmethyl)propyl]-3-methyl-pentanamide (AG-23)]
Ki [1]: 0.028 nM
Ki [2]: 0.092 nM
Ki [3]: 0.376 nM
Ki [4]: 0.048 nM
Ki (HIV-1 protease): 0.021 nM
EC50 [5]: 1.9 nM
EC50 [6]: 2.7 nM
EC50 [7]: 2.3 nM
EC50 [8]: 3.5 nM
EC50 (MDR1): 7.2 nM
EC50 (MDRC4): 8.7 nM

COc1ccc(S(=O)(=O)N(CCCc2ccccc2)C[C@@H](O)[C@H](Cc2ccccc2)NC(=O)c2cccc(O)c2)cc1 [3-Hydroxy-N-[(1S,2R)-2-hydroxy-3-[[(4-methoxyphenyl)sulfonyl](3-phenylpropyl)amino]-1-(phenylmethyl)propyl]-benzamide (AF-78)]
Ki [1]: 2.54 nM
Ki [2]: 5.89 nM
Ki [3]: 42.9 nM
Ki [4]: 23.8 nM
Ki (HIV-1 protease): 0.437 nM

Reference: BindingDB's records for doi:10.1021/cb400468c (Massachusetts Institute of Technology, 2013)
